How the values were obtained:
[1] = tested on: H. pylori CCUG17875 binding to the Lewis b antigen; experiment: RIA inhibition assay: H. pylori pre-treated with product, then binding to 125I-labeled Lewis b conjugate; design: species or system Helicobacter pylori; settings: pretreated with 2 mM for 1 hour; FIG. 1B
[2] = tested on: H. pylori CCUG17875 adherence to human gastric mucosa; experiment: H. pylori adherence in situ to histo-sections of human gastric mucosa; format: cell-based, Helicobacter pylori; settings: after pretreatment with 2 mM
Method: Pretreatment of strain CCUG 17875 with soluble Lewis b antigen, with L. curvatus fermented rye bran and with ferric quinate is shown. Here, bacterial binding to 10 different gastric surface epithelium regions were estimated (value p<0.001(***), value p<0.01(**), value p<0.05(*)).
Bacterial adherence in situ was performed as described by Falk et al., 1993. Human biopsy samples of healthy gastric tissue were obtained from the Division for Gastroenterology, Norrland University Hospital, Umea, Sweden. The biopsies were taken from the antrum part of the stomach, then they were fixed in 4% buffered formalin and finally they were embedded in paraffin wax. Sections were stained with hematoxylin and eosin following standard procedures. H. pylori were first labeled with FITC, and bacterial adherence to the gastric mucous was then analyzed by the ability of L. curvatus-fermented rye-bran to inhibit bacterial adherence to re-hydrated histo-sections of human gastric epithelial cells in situ. For comparative inhibition analyzes, H. pylori was pre-incubated with Lewis b conjugate (10 μg/mL), and fermented rye-bran (1 mL) for 1 hour at room temperature. Then, as described above, the H. pylori bacterial cells were applied to the histo-sections. […]

Compound: O=C(O)[C@]1(O)C[C@@H](O)[C@@H](O)[C@H](O)C1 [Quinic Acid, reference compound]
- inhibition of H. pylori binding to the Lewis b antigen [1]: no inhibition

Compound: Ferric Quinate
- inhibition of H. pylori binding to the Lewis b antigen [1]: 69%
- adherence of strain CCUG17875 to the gastric tissue section epithelium [2]: similarly much reduced

Reference: patent US9357792B2, “Fermented cereal product obtained by fermentation of rye bran with a Lactobacillus curvatus strain” (priority 2001, dated 2016)
